ChEMBL document CHEMBL1122462, “Potential antiatherosclerotic agents. 4. [(Functionalized-alkyl)amino]benzoic acid analogues of cetaben” (1983)

Key:
Rattus norvegicus [1] = assay: In vivo Triglyceride lowering activity at dose as 0.03 % of the diet; type: functional
Rattus norvegicus [2] = assay: In vivo sterol lowering activity at dose of 0.10 % of the diet; type: functional
Rattus norvegicus [3] = assay: In vivo Sterol lowering activity at dose as 0.01% of the diet; type: functional
Rattus norvegicus [4] = assay: In vivo Triglyceride lowering activity at dose as 0.01 % of the diet; type: functional
Rattus norvegicus [5] = assay: In vivo Triglyceride lowering activity at a dose of 0.10 % of the diet; type: functional
Rattus norvegicus [6] = assay: In vivo sterol lowering activity, dosed as 0.03 % of the diet; type: functional
[7] = molecular target: T1, Sterol O-acyltransferase 1 (Rattus norvegicus) (UniProt O70536); assay: In vitro inhibitory activity against acyl coenzyme A:cholesterol acyltransferase; parameters: concentration or dose not given beside the values; settings: concentration not given here
T1 sequence (whole entry): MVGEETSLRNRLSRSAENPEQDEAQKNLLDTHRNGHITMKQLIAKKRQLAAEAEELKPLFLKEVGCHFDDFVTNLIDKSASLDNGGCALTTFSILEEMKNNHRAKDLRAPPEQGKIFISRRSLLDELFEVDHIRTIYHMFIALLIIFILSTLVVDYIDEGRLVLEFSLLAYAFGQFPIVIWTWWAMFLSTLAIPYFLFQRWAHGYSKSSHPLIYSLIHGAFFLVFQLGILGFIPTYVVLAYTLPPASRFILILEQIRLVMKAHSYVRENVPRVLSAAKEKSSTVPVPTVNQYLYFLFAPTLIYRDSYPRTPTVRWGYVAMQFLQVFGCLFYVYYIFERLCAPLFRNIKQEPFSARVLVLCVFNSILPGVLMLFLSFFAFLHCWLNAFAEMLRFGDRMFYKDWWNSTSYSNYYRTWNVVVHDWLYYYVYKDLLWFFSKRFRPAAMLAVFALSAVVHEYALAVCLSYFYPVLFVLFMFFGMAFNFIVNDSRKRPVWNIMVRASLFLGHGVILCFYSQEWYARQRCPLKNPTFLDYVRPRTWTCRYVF

| Structure (SMILES) | triglyceride lowering activity (Rattus norvegicus [1]) [%] | serum sterol level, % of control (Rattus norvegicus [2]) [%] | serum sterol level, percent of control (Rattus norvegicus [3]) [%] | serum triglyceride level (% of control) (Rattus norvegicus [4]) [%] | serum triglyceride level (% of control) (Rattus norvegicus [5]) [%] | serum sterol level, percent of control (Rattus norvegicus [6]) [%] | inhibition [7] [%] |
| --- | --- | --- | --- | --- | --- | --- | --- |
| C[Si](C)(C)CCCCCCCCCCCCCCNc1ccc(C(=O)O)cc1 | <38 | <40 | <70 | <59 | <30 | <51 |  |
| CCCCCCCCCCCCCCCCN(CS(=O)(=O)[O-])c1ccc(C(=O)[O-])cc1.[Na+].[Na+] | 95 | <75 | 89 | 77 | 89 | 91 |  |
| CCCCOCCCCCCCCCCCNc1ccc(C(=O)O)cc1 |  | 91 | <86 | 74 | <44 |  | < 62 |
| O=C([O-])CCCCCCCCCCCCCCCNc1ccc(C(=O)[O-])cc1.[Na+].[Na+] | 97 | 106 | 102 | 93 | 132 | 102 |  |
| O=C(O)c1ccc(NCCCCCCCCCCCCCCCC(F)(F)F)cc1 | <41 | <61 | <75 | <46 | <42 | <72 |  |
| C[Si](C)(C)CCCCCCCCCCCNc1ccc(C(=O)[O-])cc1.[Na+] | 88 | <48 | <81 | 122 | <46 | <73 |  |
| CCOC(=O)c1ccc(NC(=O)C(F)(F)C(F)(F)C(F)(F)C(F)(F)C(F)(F)C(F)(F)C(F)(F)F)cc1 | <43 | <69 | <68 | <61 |  | <73 | 0 |
| CC(C)(C)CCCCCCCCCCCCCCNc1ccc(C(=O)[O-])cc1.[Na+] | <55 | <44 | <72 | <66 | <30 | <53 |  |
| C[Si](C)(C)CCCCCCCCCCCCCCNc1ccc(C(=O)[O-])cc1.[Na+] | <43 | <39 | 75 | <55 | <22 | <56 |  |
| O=C(O)c1ccc(NCCCCCCCCCCCSc2ccc(C(=O)O)cc2)cc1 | 92 | 98 |  |  | 78 | 104 | < 29 |
| O=C([O-])c1ccc(NCCCCCCCCCCCCCCCC(F)(F)F)cc1.[Na+] | <39 | <34 | <75 | <63 | <21 | <62 |  |
| O=C(O)CCCCCCCCCCCCCCCNc1ccc(C(=O)O)cc1 | 90 | 92 | 101 | 124 | 96 | 92 |  |
| C[Si](C)(C)CCCCCCCCCCCNc1ccc(C(=O)O)cc1 | <54 | <44 | <79 | <67 | <25 | <69 |  |
| CCCCCCCCCCCCCCCCN(CS(=O)(=O)[O-])c1ccc(C(=O)O)cc1.[Na+] | <57 | <72 | 91 | 79 | <49 | <87 |  |
| CCCCCCCCCCC(C)(O)CCCCCNc1ccc(C(=O)OCC)cc1 (stereo not drawn) |  | <82 |  |  | <28 |  | < 59 |
| CC(C)(C)CCCCCCCCCCCCCCNc1ccc(C(=O)O)cc1 | <42 | <48 | <69 | <59 | <20 | <53 |  |
| CCCCCCCCCCC(C)(O)CCCCCNc1ccc(C(=O)O)cc1 (stereo not drawn) |  | <73 |  |  | <37 |  | < 53 |
| CCCCCCCCCCC(CCCCCNc1ccc(C(=O)OCC)cc1)SC(C)=O (stereo not drawn) |  | 94 |  |  | <46 |  | < 26 |
| CCCCCCCCCC/C(CCCCCNc1ccc(C(=O)O)cc1)=N/O | <30 | <75 | 86 | <52 | <31 | <84 |  |
| C[Si](C)(C)CCCNc1ccc(C(=O)O)cc1 | <58 | <82 | 100 | <69 | <47 | 90 |  |
| CCOC(=O)c1ccc(NCCCCCCCCCCCCCCCCSCC)cc1 |  | <89 |  |  | <58 |  | < 10 |
| COC(=O)c1ccc(NC(=O)CCCCCCCCCCOc2ccc(C(=O)OC)cc2)cc1 |  | 94 |  |  | 118 |  | < 63 |
| CCOC(=O)c1ccc(NCCCCCCCCCCCO)cc1 |  | 94 |  |  | 93 |  | < 60 |
| CCCCCCCCCCC(O)CCCCCNc1ccc(C(=O)O)cc1 (stereo not drawn) | <43 | <86 | 104 | <66 | <31 | 96 |  |
| CCCCSCCCCCCCCCCC(=O)Nc1ccc(C(=O)OC)cc1 |  | 92 |  |  | 81 |  | < 56 |
| C[Si](C)(C)CCCNc1ccc(C(=O)[O-])cc1.[Na+] | 85 | <64 | 87 | 102 | <77 | <82 |  |
